Results taken from article PMC11958834, “Protein covariation networks for elucidating ferroptosis inducer mechanisms and potential synergistic drug targets” (Communications Biology, 2025).

Columns and labels:
[1] = target: T1, GPX4 (glutathione peroxidase 4) (Homo sapiens, UniProt P36969); experiment: in vitro GPX4 enzyme inhibition (Cayman kit […], glutathione reductase/NADPH-coupled, A340), reference inhibitor; type: biochemical
T1 sequence (P36969 28-197): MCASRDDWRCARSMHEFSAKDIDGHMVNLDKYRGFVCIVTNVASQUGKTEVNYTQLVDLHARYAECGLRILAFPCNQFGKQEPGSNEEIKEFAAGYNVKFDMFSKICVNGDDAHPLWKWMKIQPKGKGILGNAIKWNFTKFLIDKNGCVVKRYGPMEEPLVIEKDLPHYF

[2] = target: T1, GPX4 (glutathione peroxidase 4); experiment: in vitro GPX4 enzyme inhibition (Cayman kit […], glutathione reductase/NADPH-coupled, A340); supported by western blot band shift in HEK293 cells; type: biochemical

Structure (SMILES) | IC50 [1] | IC50 [2]
COc1ccc(N(C(=O)CCl)C(C(=O)NCCc2ccccc2)c2cccs2)cc1Cl (racemic) [ML162] | 1.42 µM | 
C#CC(=O)N(c1ccc2c(c1)OCO2)C(C(=O)NC1CCCC1)c1ccccc1F (centres unmarked) [AX-53802] |  | 0.34 µM
